Results published in patent publication US9901573B2, “Compositions, methods, and kits for regulating energy metabolism” (NuSirt Sciences, Inc., priority 2012, dated 2018).

Legend:
[1] = system: Phospho-AMPKα (Thr172); test: Phospho-AMPKα (Thr172) Western blot in myotubes; assay type: cell-based; conditions: C2C12 myotubes, FIG. 11
Procedure: Cell Culture: C2C12 and 3T3-L1 preadipocytes (American Type Culture Collection) were plated at a density of 8000 cells/cm^2 (10 cm^2 dish) and grown in Dulbecco's modified eagle's medium (DMEM) containing 10% fetal bovine serum (FBS), and antibiotics (growth medium) at 37° C. in 5% CO2. Confluent 3T3-L1 preadipocytes were induced to differentiate with a standard differentiation medium consisting of DMEM medium supplemented with 10% FBS, 250 nM dexamethasone, 0.5 mM 3-Isobutyl-1-methylxanthine (IBMX) and 1% penicillin-streptomycin. Preadipocytes were maintained in this differentiation medium for 3 days and subsequently cultured in growth medium. Cultures were re-fed every 2-3 days to allow >90% cells to reach fully differentiation before conducting chemical treatment. For differentiation of C2C12 cells, cells were grown to 100% confluence, transferred to differentiation medium (DMEM with 2% horse serum and 1% penicillin-streptomycin), and fed with fresh differentiation medium every day until myotubes were fully formed (3 days).
Western blot: The Phospho-AMPKα (Thr172)- and Sirt1 (mouse specific)-antibody was obtained from Cell Signaling (Danvers, Mass.). C2C12 myotubes were treated as indicated in results and the cellular fractions were prepared using standard methods. Protein was measured by BCA kit (Thermo Scientific). […] Visualization and chemiluminescent detection was conducted using BioRad ChemiDoc instrumentation and software (Bio-Rad Laboratories, Hercules, Calif.) and band intensity was assessed using Image Lab 4.0 (Bio-Rad Laboratories, Hercules, Calif.), with correction for background and loading controls. P-AMPK was detected at 61-66 kDA and Sirt1 was detected at 104-115 kDA.

[2] = Circulating level achieved by dietary dosing; assay type: in vivo, human
Text: In some embodiments, the dosing of leucine, any metabolites of leucine, and/or vitamin B6 can be designed to achieve a specified physiological concentration or circulating level of leucine, metabolites of leucine and/or vitamin B6. The physiological concentration can be a circulating level as measured in the blood stream of a subject. The subject can be a human or an animal. A selected dosing can be altered based on the characteristics of the subject, such as weight, rate of energy metabolism, genetics, ethnicity, height, or any other characteristic. The amount of leucine in a unit dose can be such that the circulating level of leucine in a subject is about or greater than about 0.25 mM, 0.5 mM, 0.75 mM, or 1 mM. A dosing of about 1,125 mg leucine can achieve a circulating level of leucine in a subject that is about 0.5 mM. A dosing of about 300 mg leucine can achieve a circulating level of leucine in a subject that is about 0.25 mM. A dosing of about 15 mg of vitamin B6 can achieve a circulating level of vitamin B6 that is about 100 nM. A dosing of about 7.5 mg of vitamin B6 can achieve a circulating level of vitamin B6 that is about 50 nM. The amount of vitamin B6 in a unit dose can be such that the circulating level of vitamin B6 in a subject is about or greater than about 10, 25, 50, 100, 150, or 200 nM. […]

SMILES: CC(C)C[C@H](N)C(=O)O [Leucine, leucine]
- AMPK activation (Phosphorylated AMPK Thr172), increase [1]: Neither treatment with leucine, valine, nor B6 alone exerted any significant effect
- circulating level of leucine ([2]; dosing of about 300 mg leucine): about 0.25 mM
- circulating level of leucine ([2]; dosing of about 1,125 mg leucine): about 0.5 mM
